Measurements reported in the NIST ThermoML archive (doi:10.1007/s10765-012-1371-1).
Numbers after ± are expanded uncertainties.

Tests used:
[1] = 101 kPa, Liquid
[2] = xn = mol fraction of the nth substance listed; conditions: 101 kPa, Liquid

CC(C)CCl [1-chloro-2-methylpropane]
[1]
Conditions | viscosity [mPa·s]
283.15 K | 0.5155 ± 0.0096
288.15 K | 0.4833 ± 0.0092
293.15 K | 0.454 ± 0.0087
298.15 K | 0.4296 ± 0.0083
303.15 K | 0.4112 ± 0.008
308.15 K | 0.3921 ± 0.0078
313.15 K | 0.3726 ± 0.0075

CC(C)CCl [1-chloro-2-methylpropane] + CCCCOCC
[2], x1 = 1
Conditions | viscosity [mPa·s]
283.15 K | 0.5155 ± 0.0096
288.15 K | 0.4833 ± 0.0092
293.15 K | 0.454 ± 0.0087
298.15 K | 0.4296 ± 0.0083
303.15 K | 0.4112 ± 0.008
308.15 K | 0.3921 ± 0.0078
313.15 K | 0.3726 ± 0.0075

CCCCCl [1-chlorobutane]
[1]
Conditions | viscosity [mPa·s]
283.15 K | 0.4993 ± 0.0094
288.15 K | 0.4701 ± 0.009
293.15 K | 0.4433 ± 0.0085
298.15 K | 0.4214 ± 0.0082
303.15 K | 0.405 ± 0.0079
308.15 K | 0.3885 ± 0.0077
313.15 K | 0.3642 ± 0.0074

CCCCCl [1-chlorobutane] + CCCCOCC
[2], x1 = 1
Conditions | viscosity [mPa·s]
283.15 K | 0.4993 ± 0.0094
288.15 K | 0.4701 ± 0.009
293.15 K | 0.4433 ± 0.0085
298.15 K | 0.4214 ± 0.0082
303.15 K | 0.405 ± 0.0079
308.15 K | 0.3885 ± 0.0077
313.15 K | 0.3642 ± 0.0074

CCC(C)Cl (configuration not stated) [2-chlorobutane]
[1]
Conditions | viscosity [mPa·s]
283.15 K | 0.4631 ± 0.0088
288.15 K | 0.4365 ± 0.0084
293.15 K | 0.4167 ± 0.0081
298.15 K | 0.3993 ± 0.0079
303.15 K | 0.38 ± 0.0076
308.15 K | 0.3615 ± 0.0073
313.15 K | 0.3443 ± 0.0071

CCC(C)Cl (configuration not stated) [2-chlorobutane] + CCCCOCC
[2], x1 = 1
Conditions | viscosity [mPa·s]
283.15 K | 0.4631 ± 0.0088
288.15 K | 0.4365 ± 0.0084
293.15 K | 0.4167 ± 0.0081
298.15 K | 0.3993 ± 0.0079
303.15 K | 0.38 ± 0.0076
308.15 K | 0.3615 ± 0.0073
313.15 K | 0.3443 ± 0.0071

COC(C)(C)C [2-methoxy-2-methylpropane]
[1]
Conditions | viscosity [mPa·s]
283.15 K | 0.3897 ± 0.0078
288.15 K | 0.364 ± 0.0074
293.15 K | 0.3482 ± 0.0071
298.15 K | 0.3327 ± 0.0069
303.15 K | 0.3152 ± 0.0066
308.15 K | 0.2994 ± 0.0064
313.15 K | 0.2846 ± 0.0062

COC(C)(C)C [2-methoxy-2-methylpropane] + CC(C)CCl
[2], x2 = 0
Conditions | viscosity [mPa·s]
283.15 K | 0.3897 ± 0.0078
288.15 K | 0.364 ± 0.0074
293.15 K | 0.3482 ± 0.0071
298.15 K | 0.3327 ± 0.0069
303.15 K | 0.3152 ± 0.0066
308.15 K | 0.2994 ± 0.0064
313.15 K | 0.2846 ± 0.0062

COC(C)(C)C [2-methoxy-2-methylpropane] + CCC(C)Cl
[2], x2 = 0
Conditions | viscosity [mPa·s]
283.15 K | 0.3897 ± 0.0078
288.15 K | 0.364 ± 0.0074
293.15 K | 0.3482 ± 0.0071
298.15 K | 0.3327 ± 0.0069
303.15 K | 0.3152 ± 0.0066
308.15 K | 0.2994 ± 0.0064
313.15 K | 0.2846 ± 0.0062

COC(C)(C)C [2-methoxy-2-methylpropane] + CCCCCl
[2], x2 = 0
Conditions | viscosity [mPa·s]
283.15 K | 0.3897 ± 0.0078
288.15 K | 0.364 ± 0.0074
293.15 K | 0.3482 ± 0.0071
298.15 K | 0.3327 ± 0.0069
303.15 K | 0.3152 ± 0.0066
308.15 K | 0.2994 ± 0.0064
313.15 K | 0.2846 ± 0.0062

CCCCOCC [butyl ethyl ether]
[1]
Conditions | viscosity [mPa·s]
283.15 K | 0.4796 ± 0.0091
288.15 K | 0.4509 ± 0.0087
293.15 K | 0.4242 ± 0.0083
298.15 K | 0.399 ± 0.0079
303.15 K | 0.3756 ± 0.0075
308.15 K | 0.356 ± 0.0072
313.15 K | 0.3416 ± 0.007
